From paper PMC10205683, “Structure Based Discovery of Inhibitors of CYP125 and CYP142 from Mycobacterium tuberculosis” (Chemistry (Weinheim an Der Bergstrasse, Germany), 2023)
Values after ≈ are worked out from the molar mass of the structure shown.

Columns and labels:
[1] = target: T1, CYP142 (Mycobacterium tuberculosis, UniProt P9WPL5); assay: biochemical; details: UV-Vis spectroscopy
T1 sequence (P9WPL5 2-398): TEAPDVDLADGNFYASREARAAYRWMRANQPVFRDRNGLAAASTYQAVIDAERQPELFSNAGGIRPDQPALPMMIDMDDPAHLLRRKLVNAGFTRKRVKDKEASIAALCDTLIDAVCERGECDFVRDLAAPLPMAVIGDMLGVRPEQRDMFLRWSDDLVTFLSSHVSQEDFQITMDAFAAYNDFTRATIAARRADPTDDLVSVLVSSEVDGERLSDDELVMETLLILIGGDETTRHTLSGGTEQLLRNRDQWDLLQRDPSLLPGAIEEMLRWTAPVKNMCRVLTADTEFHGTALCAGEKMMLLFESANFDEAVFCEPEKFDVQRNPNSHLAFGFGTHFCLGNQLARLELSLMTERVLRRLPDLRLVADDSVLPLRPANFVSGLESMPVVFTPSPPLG

[2] = target: T2, CYP125 (Mycobacterium tuberculosis, UniProt P9WPP1); assay: biochemical; type: binding; details: UV-Vis spectroscopy
T2 construct: encoding residues 18-433; twin-strep hexahistidine tag (TEV-cleavable) (N, cleaved yes); made in house; host or cells: E. coli C41(DE3), pET21a
T2 sequence (P9WPP1 18-433 limits assumed): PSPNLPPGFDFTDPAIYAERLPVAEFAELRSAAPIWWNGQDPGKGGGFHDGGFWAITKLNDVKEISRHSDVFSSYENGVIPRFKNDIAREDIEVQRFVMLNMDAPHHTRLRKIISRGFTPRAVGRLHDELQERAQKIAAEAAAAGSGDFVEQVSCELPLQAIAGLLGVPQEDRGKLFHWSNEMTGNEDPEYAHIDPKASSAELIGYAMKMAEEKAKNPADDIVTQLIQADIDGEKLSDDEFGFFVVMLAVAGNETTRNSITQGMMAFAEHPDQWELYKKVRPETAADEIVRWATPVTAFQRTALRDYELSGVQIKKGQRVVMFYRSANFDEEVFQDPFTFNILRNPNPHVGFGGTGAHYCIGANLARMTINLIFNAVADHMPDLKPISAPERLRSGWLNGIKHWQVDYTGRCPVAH

[3] = tested on: Mtb strain K18b01MR; assay: microbe, parasite or virus in culture; type: cell-based; details: Mycobacterium tuberculosis
[4] = tested on: Mtb strain CDC1551; assay: MIC determination against Mtb CDC1551 (clinical strain); type: cell-based; details: Mycobacterium tuberculosis
[5] = tested on: Mtb strain KB019; assay: microbe, parasite or virus in culture; type: cell-based; details: Mycobacterium tuberculosis
[6] = tested on: Mtb H37Rv (ATCC 27294); assay: MIC determination against Mtb H37Rv; type: cell-based, Mycobacterium tuberculosis
[7] = tested on: Mtb strain K03b00DS; assay: MIC determination against Mtb K03b00DS (DS); type: cell-based; details: Mycobacterium tuberculosis
[8] = tested on: Mtb strain 028 K111; assay: microbe, parasite or virus in culture; type: cell-based; details: Mycobacterium tuberculosis
[9] = tested on: Mtb strain 53 K113; assay: microbe, parasite or virus in culture; type: cell-based; details: Mycobacterium tuberculosis
[10] = tested on: Mtb strain NIH_G269DR; assay: microbe, parasite or virus in culture; type: cell-based; details: Mycobacterium tuberculosis
[11] = Mycobacterium tuberculosis, 336 h

NC(=O)c1cc2cc(-c3ccncc3)ccc2n1CCN1CCNCC1 [Compound 15]
Kd [1]: 2500 ± 200 nM
Kd [2]: 48800 ± 2300 nM

CCOC(=O)c1cc2cc(-c3ccncc3)ccc2n1CC1CCCC1 [Compound 8]
Kd [1]: 60 ± 10 nM
Kd [2]: 300 ± 60 nM

CCOC(=O)c1cc2cc(-c3ccncc3)ccc2n1Cc1ccccc1 [Compound 5]
Kd [1]: 40 ± 10 nM
Kd [2]: 650 ± 60 nM

CCOC(=O)c1cc2cc(-c3ccncc3)ccc2n1CCC1CCNCC1 [Compound 10]
Kd [1]: 390 ± 60 nM
Kd [2]: 5000 ± 200 nM

CCOC(=O)c1cc2cc(-c3ccncc3)ccc2n1C(=O)c1ccccc1 [Compound 6]
Kd [1]: 420 ± 80 nM
Kd [2]: 120 ± 40 nM

CCOC(=O)c1cc2cc(-c3ccncc3)ccc2n1CC1CCCCC1 [Compound 7]
Kd [1]: 50 ± 10 nM
Kd [2]: 310 ± 30 nM

CCOC(=O)c1cc2cc(-c3ccncc3)ccc2n1CC1CCNCC1 [Compound 11]
Kd [1]: 710 ± 90 nM
Kd [2]: 14800 ± 900 nM

CCOC(=O)c1cc2cc(-c3ccncc3)ccc2[nH]1 [Compound 4, ethyl 5‐(pyridin‐4‐yl)‐1H‐indole‐2‐carboxylate]
Kd [1]: 750 nM
Kd [2]: 3000 nM

Cc1noc(-c2cc3cc(-c4ccncc4)ccc3n2CCC2CCNCC2)n1 [Compound 16]
MIC ([3]; 168 h): 6.25 µM (≈ 2.42 µg/mL)
MIC ([3]; 336 h): 6.25 µM (≈ 2.42 µg/mL)
MIC ([4]; 168 h): 6.25 µM (≈ 2.42 µg/mL)
MIC ([4]; 336 h): 6.25 µM (≈ 2.42 µg/mL)
MIC ([5]; KB019, 168 h): 9.4 µM (≈ 3.64 µg/mL)
MIC ([5]; KB019, 336 h): 12.5 µM (≈ 4.84 µg/mL)
MIC ([6]; Mycobacterium tuberculosis, 168 h): 4.7 µM (≈ 1.82 µg/mL)
MIC [6, 11]: 12.5 µM (≈ 4.84 µg/mL)
MIC ([7]; 168 h): 6.25 µM (≈ 2.42 µg/mL)
MIC ([7]; 336 h): 6.25 µM (≈ 2.42 µg/mL)
MIC ([8]; 028K111, 168 h): 6.25 µM (≈ 2.42 µg/mL)
MIC ([8]; 028K111, 336 h): 6.25 µM (≈ 2.42 µg/mL)
MIC ([9]; 53K113, 168 h): 6.25 µM (≈ 2.42 µg/mL)
MIC ([9]; 53K113, 336 h): 6.25 µM (≈ 2.42 µg/mL)
Kd [1]: 390 ± 50 nM
MIC ([10]; 168 h): 6.25 µM (≈ 2.42 µg/mL)
MIC ([10]; 336 h): 9.4 µM (≈ 3.64 µg/mL)
Kd [2]: > 100000 nM

Cc1nnc(-c2cc3cc(-c4ccncc4)ccc3n2CCC2CCNCC2)o1 [Compound 18]
MIC ([3]; 168 h): 50 µM (≈ 19.4 µg/mL)
MIC ([3]; 336 h): 50 µM (≈ 19.4 µg/mL)
MIC ([4]; 168 h): 50 µM (≈ 19.4 µg/mL)
MIC ([4]; 336 h): 50 µM (≈ 19.4 µg/mL)
MIC ([5]; KB019, 168 h): > 50 µM
MIC ([5]; KB019, 336 h): 50 µM (≈ 19.4 µg/mL)
MIC ([6]; Mycobacterium tuberculosis, 168 h, Table S1, H37Rv, […], 1 Week): 25 µM (≈ 9.69 µg/mL)
MIC [6, 11]: > 50 µM
MIC ([6]; Mycobacterium tuberculosis, 336 h, Table S1, H37Rv, […], 2 Week): 50 µM (≈ 19.4 µg/mL)
MIC ([6]; Table S1, H37Rv, […], 1 Week): > 50 µM
MIC ([7]; 168 h): 50 µM (≈ 19.4 µg/mL)
MIC ([7]; 336 h): 50 µM (≈ 19.4 µg/mL)
MIC ([8]; 028K111, 168 h): 50 µM (≈ 19.4 µg/mL)
MIC ([8]; 028K111, 336 h): > 50 µM
MIC ([9]; 53K113, 168 h): 50 µM (≈ 19.4 µg/mL)
MIC ([9]; 53K113, 336 h): > 50 µM
Kd [1]: 990 ± 100 nM
MIC ([10]; 168 h): > 50 µM
MIC ([10]; 336 h): > 50 µM
Kd [2]: 10200 ± 100 nM
